Test results taken from US12319681B2, “Tripartite androgen receptor eliminators, methods and uses thereof” (SPG Therapeutics, Inc., priority 2017, dated 2025).
Read-outs that look alike come from different tables or passages of the source.

Assays:
[1] = target: androgen receptor (AR) (Homo sapiens, UniProt P10275); assay: MDA-kb2 AR luciferase reporter gene assay (1.0 nM DHT); type: cell-based; settings: read-out: Gene Activity Reduction
Procedure: This example illustrates how to determine the inhibitory activity of an ARE disclosed herein using a cell-based androgen receptor transcriptional reporter assay using an engineered cell line.
(§1) Each ARE tested was prepared in DMSO. […] Ethanol concentrations in media never exceeded 0.1%.
(§2) To assess ARE-mediated inhibition, an AR luciferase assay was performed. After washing cells with 1×PBS, 20 μL lysis buffer (25 mM Tris/phosphate, 4 mM EGTA, 1% Triton, 10% glycerol, 2 mM DTT) was added per well, incubated for 5 minutes with gentle shaking and store at −80° C. On the day of assay, the plates were thawed to ambient temperature and 80 μL of assay buffer (25 mM glycylglycine, 15 mM MgCl2. 5 mM ATP, 0.1 mg/ml BSA) was added to each well. Plates are then processed on a microplate reader (POLARstar Omega) by injecting 100 μL of 1 mM D-luciferin per well, followed by chemiluminescence measurement of 3 seconds at onset of injection. Luciferase activity was determined, measured, and normalized to Relative Light Units (RLU). AR reporter gene activity reduction values were calculated as follows: AR reporter gene activity=1−(average signal (treatment group)/average signal (treatment group without drug).

[2] = test system: MDA-kb2 mammary gland breast cancer cell line; settings: human, 24 h
Procedure: (§3) For the MDA-kb2 assay, MDA-kb2 mammary gland breast cancer cell line was maintained in L-15 media (Gibco) supplemented with 10% FBS, 100 U/mL penicillin, 100 μg/mL streptomycin, and 0.25 μg/mL amphotericin B at 37° C., without CO2. For experiments, cells were plated at 1.0×10^4 cells (50% confluence) per well in 100 μL of medium in 96-well plates. When cells were attached (after 6 hours), medium was removed and replaced with dosing medium containing 10% charcoal stripped FBS.
(§4) A 5α-Androstan-17β-ol-3-one (DHT) stock solution was prepared at 1,000× in ethanol. Each ARE tested was prepared in DMSO. Dosing medium was prepared at the time of treatment by serial diluting stock solution into medium. Ethanol concentrations in media never exceeded 0.1%. […] Negative control wells contained 100 μL medium/well with 1 μL of ethanol/mL of medium and an appropriate amount of DMSO. Each plate also contained 1.0 nM DHT with an ARE or without an ARE as a positive control. Cells were incubated 24 hours at 37° C. without CO2.
(§5) To assess for cell viability, cells were first visually examined under a phase-contrast microscope to record cell confluence, morphological changes, and presence of drug crystallization as well as to observe signs of cytotoxity such as, e.g., detachment, vacuolization, membrane degradation, or lack of phase brightness. After microscopic inspection, a Trypan Blue exclusion assay was performed to assess cell viability and cell number for each well. Each well was washed with 0.5 mL volume of PBS. 30 µL of Trypan Blue was added to each well for 5-10 minutes. Total cell number and total viable cell number will be counted from 1 number of fields per well, in triplicate.

[3] = target: T1, androgen receptor (AR) (Homo sapiens, UniProt P10275); assay: Keratinocyte AR protein level ELISA (Example 10); type: cell-based; settings: 24 h, keratinocytes, AR protein level by ELISA, read-out: AR Reduction
T1 construct: human keratinocytes transfected with an AR luciferase reporter gene; endogenous in cells; host or cells: normal human adult primary epidermal keratinocytes (ATCC PCS-200-011)
T1 sequence (P10275 1-920): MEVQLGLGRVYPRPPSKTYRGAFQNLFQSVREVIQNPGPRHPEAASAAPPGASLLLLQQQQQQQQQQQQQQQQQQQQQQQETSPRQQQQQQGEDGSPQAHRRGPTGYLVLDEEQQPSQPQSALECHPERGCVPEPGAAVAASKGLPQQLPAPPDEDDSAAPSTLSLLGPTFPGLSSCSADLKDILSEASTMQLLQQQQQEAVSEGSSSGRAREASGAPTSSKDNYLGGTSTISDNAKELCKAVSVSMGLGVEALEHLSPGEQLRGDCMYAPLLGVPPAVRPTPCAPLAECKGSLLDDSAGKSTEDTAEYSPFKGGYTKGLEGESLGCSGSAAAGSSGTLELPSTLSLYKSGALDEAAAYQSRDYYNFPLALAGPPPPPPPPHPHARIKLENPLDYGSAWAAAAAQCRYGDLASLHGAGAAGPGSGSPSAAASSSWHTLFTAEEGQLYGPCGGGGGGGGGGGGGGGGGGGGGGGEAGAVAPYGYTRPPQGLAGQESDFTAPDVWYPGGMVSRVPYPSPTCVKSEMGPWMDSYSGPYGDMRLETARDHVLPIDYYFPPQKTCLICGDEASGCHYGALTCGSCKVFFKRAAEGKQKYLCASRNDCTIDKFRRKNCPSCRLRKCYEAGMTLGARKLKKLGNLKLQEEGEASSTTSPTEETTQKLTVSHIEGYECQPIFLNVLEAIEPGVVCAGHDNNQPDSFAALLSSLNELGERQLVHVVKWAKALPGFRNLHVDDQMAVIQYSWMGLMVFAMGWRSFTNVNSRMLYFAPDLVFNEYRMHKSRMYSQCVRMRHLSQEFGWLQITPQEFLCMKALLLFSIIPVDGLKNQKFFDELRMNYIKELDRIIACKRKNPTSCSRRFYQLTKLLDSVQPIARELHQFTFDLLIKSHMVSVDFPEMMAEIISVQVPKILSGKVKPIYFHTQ
Procedure: as §1
To assess levels of AR, an ELISA was performed.

[4] = test system: normal Human Adult Primary Epidermal Keratinocyte cell line; assay: Keratinocyte cell viability (Trypan Blue exclusion, Example 10); settings: keratinocytes, 1.0 nM DHT, 24 hours
Procedure: For the Keratinocyte assay, normal Human Adult Primary Epidermal Keratinocyte cell line (ATCC PCS-200-011) was maintained in EPIUFE® Medium, with 60 μM calcium (Thermo MEPISOOCA) supplemented with Human Keratinocyte Growth Supplement, 100 U/mL penicillin, and 100 μg/mL streptomycin at 37° C. with 5% C02. For experiments, cells were seeded at 70% confluence per well in 100 μL of medium in 96-well plates. […] After 16 hours, medium was removed and replaced with dosing medium.
A 5α-Androstan-17β-ol-3-one (DHT) stock solution was prepared at 1,000× in ethanol. […] Dosing medium was prepared at the time of treatment by serial diluting stock solution into medium. Ethanol concentrations in media never exceeded 0.1%. […] Negative control wells contained 100 μL medium/well with 1 μL of ethanol/mL of medium and an appropriate amount of DMSO. Each plate also contained 1.0 nM DHT with an ARE or without an ARE as a positive control. Cells were incubated 24 hours at 37° C. without CO2.
as §5

[5] = target: T1, androgen receptor (AR); assay: Keratinocyte AR luciferase reporter gene assay (Example 10); type: cell-based; settings: keratinocytes, 1.0 nM DHT, 24 hours, read-out: Gene Activity Reduction
Procedure: as §1, §2

[6] = target: T1, androgen receptor (AR); assay: Keratinocyte AR Reporter Gene Assay, 24 and 72 hours continuous exposure (Example 12); type: cell-based; settings: keratinocytes
Procedure: as §2
This example illustrates how to determine the inhibitory activity of an ARE disclosed herein using a cell-based androgen receptor transcriptional reporter assay using primary human keratinocytes.
Results were analyzed for IC50 and IC90 values in GraphPad Prism using a four-parameter logistic curve equation. Bottom constraints were set to 1 (level of uninduced control).

[7] = test system: MDA-kb2 mammary gland breast cancer cell line; assay: MDA-kb2 cell viability (Trypan Blue exclusion); settings: MDA-kb2, 1.0 nM DHT, 24 hours
Procedure: as §3, §4, §5

[8] = test system: normal Human Adult Primary Epidermal Keratinocyte cell line; assay: Keratinocyte Cell Viability Assay (Example 11, 72 hours); settings: keratinocytes, 72 hours, 0 μM = 100
Procedure: (§6) For the Keratinocyte assay, normal Human Adult Primary Epidermal Keratinocyte cell line (ATCC PCS-200-011) was maintained in EPIUFE® Medium, with 60 μM calcium (Thermo MEPISOOCA) supplemented with Human Keratinocyte Growth Supplement, 100 U/mL penicillin, and 100 μg/mL streptomycin at 37° C. with 5% C02. For experiments, cells were seeded at 70% confluence per well in 100 μL of medium in 96-well plates. Reverse transfection was done on the cells using Lipofectamine 3000 (Life Technologies) with plasmids according to manufacturer's instructions. Briefly, 0.3 μL transfection reagent per 100 ng DNA were incubated with P3000 reagent and Opti-Mem prior to addition of cells. After 16 hours, medium was removed and replaced with dosing medium.
(§7) Each ARE tested was prepared in DMSO. Dosing medium was prepared at the time of treatment by serial diluting stock solution into medium. Ethanol concentrations in media never exceeded 0.1%. […] Negative control wells contained 100 L medium/well with 1 μL of ethanol/mL of medium and an appropriate amount of DMSO. […] Cells were incubated 72 hours at 37° C. without CO2.

[9] = as above; settings: human
Procedure: as §6, §7

[10] = Hamster Skin Penetration Assays; settings: 8-hour time point
Procedure: The applied formulation dose for each sample was 10.0 μL and each sample was run in four replicates. The samples were evaluated at the 8-hour time point for compound absorption in epidermal and dermal layers and penetration into receptor medium.

[11] = in vitro; settings: human
Procedure: as §6, §7

[12] = test system: normal Human Adult Primary Epidermal Keratinocyte cell line; settings: 72 h
Procedure: as §6, §7

CC12CCC(=O)C=C1C[C@@H](SC(=O)COCCOCCNC(=O)CC13CC4CC(CC(C4)C1)C3)C1C2CCC2(C)C1CC[C@@]21CCC(=O)O1 (stereo partly shown) [SPG-004]
inhibition at 0.1 µM ([1]; MDA-kb2, 24 h): 11% | inhibition at 1 µM ([1]; MDA-kb2, 24 h): 22% | inhibition at 3 µM ([1]; MDA-kb2, 24 h): 36% | inhibition at 10 µM ([1]; MDA-kb2, 24 h): 42% | Cell Viability ([2]; 0.1 μM): 97% | Cell Viability ([2]; 1 μM): 98% | Cell Viability ([2]; 3 μM): 99% | Cell Viability ([2]; 10 μM): 98%

O=C(CC12CC3CC(CC(C3)C1)C2)N1CCN(c2ccc(OC[C@H]3CO[C@](Cn4ccnc4)(c4ccc(Cl)cc4Cl)O3)cc2)CC1 [SPG-006]
inhibition at 0.1 µM [3]: 1% | inhibition at 1 µM [3]: 5% | inhibition at 3 µM [3]: 20% | inhibition at 10 µM [3]: 37% | Cell Viability ([4]; 0.1 μM): 93% | Cell Viability ([4]; 1.0 μM): 94% | Cell Viability ([4]; 3.0 μM): 94% | Cell Viability ([4]; 10 μM): 94% | inhibition at 0.1 µM [5]: 8% | inhibition at 1 µM [5]: 19% | inhibition at 3 µM [5]: 28% | inhibition at 10 µM [5]: 48%

Cc1ncsc1-c1ccc([C@H](C)NC(=O)[C@@H]2C[C@@H](O)CN2C(=O)[C@@H](NC(=O)COCCOCCOCC(=O)N2CCN(c3ccc(OC[C@H]4CO[C@](Cn5ccnc5)(c5ccc(Cl)cc5Cl)O4)cc3)CC2)C(C)(C)C)cc1 [SPG-008]
IC50 ([6]; 24-hr Treatment): 3.31 µM | IC90 ([6]; 24-hr Treatment): 8.4 µM | Maximum Inhibition ([6]; 24-hr Treatment): 94% | IC50 ([6]; 72-hr Treatment): 2.38 µM | IC90 ([6]; 72-hr Treatment): 7.86 µM | Maximum Inhibition ([6]; 72-hr Treatment): 94%

O=C(CC12CC3CC(CC(C3)C1)C2)NCCOCCOCC(=O)N1CCN(c2ccc(OC[C@H]3CO[C@](Cn4ccnc4)(c4ccc(Cl)cc4Cl)O3)cc2)CC1 [SPG-005]
inhibition at 0.1 µM ([1]; 0.1 μM, MDA-kb2, 1.0 nM DHT, 24 hours): 9% | inhibition at 1 µM ([1]; 1.0 μM, MDA-kb2, 1.0 nM DHT, 24 hours): 14% | inhibition at 3 µM ([1]; 3.0 μM, MDA-kb2, 1.0 nM DHT, 24 hours): 18% | inhibition at 10 µM ([1]; 10 μM, MDA-kb2, 1.0 nM DHT, 24 hours): 80% | inhibition at 0.1 µM [3]: 12% | inhibition at 1 µM [3]: 19% | inhibition at 3 µM [3]: 23% | inhibition at 10 µM [3]: 65% | Cell Viability ([4]; 0.1 μM): 94% | Cell Viability ([4]; 1.0 μM): 92% | Cell Viability ([4]; 3.0 μM): 93% | Cell Viability ([4]; 10 μM): 94% | Cell Viability ([7]; 0.1 μM): 98% | Cell Viability ([7]; 1.0 μM): 98% | Cell Viability ([7]; 3.0 μM): 98% | Cell Viability ([7]; 10 μM): 98% | inhibition at 0.1 µM [5]: 21% | inhibition at 1 µM [5]: 29% | inhibition at 3 µM [5]: 31% | inhibition at 10 µM [5]: 90% | Cell Viability ([8]; 0.62 μM): 77.01 ± 0.64 | Cell Viability ([8]; 1.85 μM): 62.57 ± 2.06 | Cell Viability ([8]; 5.56 μM): 1.98 ± 8.39 | Cell Viability ([8]; 16.67 μM): 0.11 ± 1.77 | Cell Viability ([8]; 50 μM): 0.09 ± 6.41 | Cell Viability ([8]; […]): 93.72 ± 1.69 | IC50 at 72 h [9]: 2 µM

Cc1ncsc1-c1ccc([C@H](C)NC(=O)[C@@H]2C[C@@H](O)CN2C(=O)[C@@H](NC(=O)COCC(=O)N2CCN(c3ccc(OC[C@H]4CO[C@](Cn5ccnc5)(c5ccc(Cl)cc5Cl)O4)cc3)CC2)C(C)(C)C)cc1 [SPG-007]
IC50 ([6]; 24-hr Treatment): 4.58 µM | IC90 ([6]; 24-hr Treatment): 73.8 µM | Maximum Inhibition ([6]; 24-hr Treatment): 67% | IC50 ([6]; 72-hr Treatment): 1.5 µM | IC90 ([6]; 72-hr Treatment): 22.2 µM | Maximum Inhibition ([6]; 72-hr Treatment): 80%

CC(=O)S[C@@H]1CC2=CC(=O)CC[C@]2(C)[C@H]2CC[C@@]3(C)[C@@H](CC[C@@]34CCC(=O)O4)[C@H]12 [SPG-001, Spironolactone]
Cell Viability ([4]; 0.1 μM): 92% | Cell Viability ([4]; 1.0 μM): 94% | Cell Viability ([4]; 3.0 μM): 92% | Cell Viability ([4]; 10 μM): 95% | Cell Viability ([7]; 0.1 μM): 99% | Cell Viability ([7]; 1.0 μM): 98% | Cell Viability ([7]; 3.0 μM): 98% | Cell Viability ([7]; 10 μM): 98% | skin absorption (in words) [10]: good amount | skin penetration (in words) [10]: good amount | IC50 at 72 h [11]: 50 µM | Cell Viability ([12]; 0.62 μM): 113.05 ± 1.09 | Cell Viability ([12]; 1.85 μM): 108.09 ± 1.79 | Cell Viability ([12]; 5.56 μM): 99.27 ± 1.50 | Cell Viability ([12]; 16.67 μM): 82.73 ± 1.34 | Cell Viability ([12]; 50 μM): 58.33 ± 2.39

CC(=O)N1CCN(c2ccc(OC[C@H]3CO[C@](Cn4ccnc4)(c4ccc(Cl)cc4Cl)O3)cc2)CC1 (racemic) [SPG-002, Ketoconazole]
Cell Viability ([4]; 0.1 μM): 95% | Cell Viability ([4]; 3.0 μM): 94% | Cell Viability ([4]; 10 μM): 95% | Cell Viability ([7]; 0.1 μM): 97% | IC50 at 72 h [11]: 11 µM | Cell Viability ([12]; 0.62 μM): 93.61 ± 3.38 | Cell Viability ([12]; 1.85 μM): 90.96 ± 2.34 | Cell Viability ([12]; 5.56 μM): 71.22 ± 0.88 | Cell Viability ([12]; 16.67 μM): 41.59 ± 1.76 | Cell Viability ([12]; 50 μM): 7.29 ± 12.16

O=C(Nc1ccc([N+](=O)[O-])cc1Cl)c1cc(Cl)ccc1O [Niclosamide]
IC50 at 72 h [11]: < 0.2 µM | Cell Viability ([12]; 0.62 μM): 34.13 ± 2.99 | Cell Viability ([12]; 1.85 μM): 30.65 ± 5.98 | Cell Viability ([12]; 5.56 μM): 25.07 ± 3.81 | Cell Viability ([12]; 16.67 μM): 15.93 ± 7.45 | Cell Viability ([12]; 50 μM): 0.20 ± 6.09
